Measured values taken from patent US20130303509A1, “NAMPT INHIBITORS” (AbbVie Inc., priority 2012, published 2013).

System: PC3 cells
Test: NAMPT Cell Proliferation Assay
Type: cell-based
Conditions: Homo sapiens, PC-3, 120 h, 5 days incubation, cell viability by Cell Titer Glo
Summary of the method: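 Seeded at 500 cells/well in RPMI with 10% heat-inactivated FBS and left to attach overnight at 37° C, 5% CO2. Compounds were added as 10-fold dilutions […] for 5 days, then viability was read by CellTiter-Glo. IC50s came from sigmoidal fits of percent inhibition.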

SMILES | IC50
O=C(Nc1ccc(C2CCN(C(=O)Cc3cccc(F)c3F)CC2)cc1)C1CN(c2cccnn2)C1 [Example 419, N-(4-{1-[(2,3-difluorophenyl)acetyl]piperidin-4-yl}phenyl)-1-(pyridazin-3-yl)azetidine-3-carboxamide] | 2.17 nM
O=C(Nc1ccc(C2CCN(C(=O)c3ccc(F)cc3)CC2)cc1)C1CN(c2ccnnc2)C1 [Example 529, N-{4-[1-(4-fluorobenzoyl)piperidin-4-yl]phenyl}-1-(pyridazin-4-yl)azetidine-3-carboxamide] | 9.33 nM
O=C(Nc1ccc(C2CCN(C(=O)c3ccc(F)cc3)CC2)cc1)[C@H]1CCN(c2cccnn2)C1 [Example 689, (3S)-N-{4-[1-(4-fluorobenzoyl)piperidin-4-yl]phenyl}-1-(pyridazin-3-yl)pyrrolidine-3-carboxamide] | 9.68 nM
C=CCCC(=O)N1CCC(c2ccc(NC(=O)C3CN(c4cccnn4)C3)cc2)CC1 [Example 331, N-{4-[1-(pent-4-enoyl)piperidin-4-yl]phenyl}-1-(pyridazin-3-yl)azetidine-3-carboxamide] | 2.09 nM
O=C(Nc1ccc(C2CCN(C(=O)Cc3ccccc3Cl)CC2)cc1)[C@H]1CCN(c2cccnn2)C1 [Example 721, (3S)-N-(4-{1-[(2-chlorophenyl)acetyl]piperidin-4-yl}phenyl)-1-(pyridazin-3-yl)pyrrolidine-3-carboxamide] | 8.39 nM
O=C(Nc1ccc(O[C@@H]2CCN(C(=O)c3ccccc3)C2)cc1)[C@H]1CCN(c2cccnn2)C1 [Example 774, (3S)—N-(4-{[(3R)-1-benzoylpyrrolidin-3-yl]oxy}phenyl)-1-(pyridazin-3-yl)pyrrolidine-3-carboxamide] | 2.52 nM
O=C(Nc1ccc(C2CCN(C(=O)CC(F)(F)F)CC2)cc1)C1CN(c2ccnnc2)C1 [Example 557, 1-(pyridazin-4-yl)-N-{4-[1-(3,3,3-trifluoropropanoyl)piperidin-4-yl]phenyl}azetidine-3-carboxamide] | 10.2 nM
O=C(Nc1ccc(C2CCN(C(=O)c3ccc(F)cc3)CC2)cc1F)C1CN(c2cccnn2)C1 [Example 832, N-{2-fluoro-4-[1-(4-fluorobenzoyl)piperidin-4-yl]phenyl}-1-(pyridazin-3-yl)azetidine-3-carboxamide] | 16.7 nM
CC(C)CCC(=O)N1CCC(Oc2ccc(NC(=O)C3CN(c4cccnc4)C3)cc2)CC1 [Example 37, N-(4-{[1-(4-methylpentanoyl)piperidin-4-yl]oxy}phenyl)-1-(pyridin-3-yl)azetidine-3-carboxamide] | 6.48 nM
O=C(Nc1ccc(C2CCN(C(=O)CC3CCCC3)CC2)cc1)[C@H]1CCN(c2cccnn2)C1 [Example 644, (3S)-N-{4-[1-(cyclopentylacetyl)piperidin-4-yl]phenyl}-1-(pyridazin-3-yl)pyrrolidine-3-carboxamide] | 8.23 nM
CC1(C(=O)N2CCC(Oc3ccc(NC(=O)C4CN(c5cccnc5)C4)cc3)CC2)CC1 [Example 66, N-[4-({1-[(1-methylcyclopropyl)carbonyl]piperidin-4-yl}oxy)phenyl]-1-(pyridin-3-yl)azetidine-3-carboxamide] | 5.81 nM
O=C(Nc1ccc(OC2CCN(C(=O)CC3CCOCC3)CC2)cc1)C1CN(c2cccnc2C(F)(F)F)C1 [Example 3, N-(4-{[1-(tetrahydro-2H-pyran-4-ylacetyl)piperidin-4-yl]oxy}phenyl)-1-[2-(trifluoromethyl)pyridin-3-yl]azetidine-3-carboxamide] | 7330 nM
Cc1ccc(C(=O)N2CCC(c3ccc(NC(=O)[C@H]4CCN(c5cccnn5)C4)cc3)CC2)cc1C [Example 688, (3S)-N-{4-[1-(3,4-dimethylbenzoyl)piperidin-4-yl]phenyl}-1-(pyridazin-3-yl)pyrrolidine-3-carboxamide] | 9.4 nM
CC(C)(C(=O)N1CC[C@@H](Oc2ccc(NC(=O)C3CN(c4ccnnc4)C3)cc2)C1)c1ccccc1 [Example 466, N-(4-{[(3R)-1-(2-methyl-2-phenylpropanoyl)pyrrolidin-3-yl]oxy}phenyl)-1-(pyridazin-4-yl)azetidine-3-carboxamide] | 8.07 nM
O=C(Nc1ccc(C2CCN(C(=O)c3ccc(F)cc3F)CC2)cc1)C1CN(c2cccnn2)C1 [Example 391, N-{4-[1-(2,4-difluorobenzoyl)piperidin-4-yl]phenyl}-1-(pyridazin-3-yl)azetidine-3-carboxamide] | 5.99 nM
COCCn1nc(CC(C)C)cc1-c1ccc(NC(=O)C2CN(c3cccnn3)C2)cc1 [Example 846, N-{4-[1-(2-methoxyethyl)-3-(2-methylpropyl)-1H-pyrazol-5-yl]phenyl}-1-(pyridazin-3-yl)azetidine-3-carboxamide] | 7.24 nM
Cc1ccc(C(=O)N2CCC(c3ccc(NC(=O)[C@H]4CCN(c5cccnn5)C4)cc3)CC2)cn1 [Example 656, (3S)-N-(4-{1-[(6-methylpyridin-3-yl)carbonyl]piperidin-4-yl}phenyl)-1-(pyridazin-3-yl)pyrrolidine-3-carboxamide] | 61 nM
O=C(Nc1ccc(OC2CCN(C(=O)[C@H]3CCCO3)CC2)cc1)[C@H]1CCN(c2cccnc2)C1 [Example 14, (3S)-1-(pyridin-3-yl)-N-[4-({1-[(2R)-tetrahydrofuran-2-ylcarbonyl]piperidin-4-yl}oxy)phenyl]pyrrolidine-3-carboxamide] | 54.8 nM
CCC(C)(C)CN1CCC(c2ccc(NC(=O)C3CN(c4cccnc4)C3)cc2)CC1 [Example 89, N-{4-[1-(2,2-dimethylbutyl)piperidin-4-yl]phenyl}-1-(pyridin-3-yl)azetidine-3-carboxamide] | 64.6 nM
O=C(Nc1ccc(S(=O)(=O)C2CCN(C(=O)c3ccccc3F)CC2)cc1)C1CN(c2cccnn2)C1 [Example 577, N-(4-{[1-(2-fluorobenzoyl)piperidin-4-yl]sulfonyl}phenyl)-1-(pyridazin-3-yl)azetidine-3-carboxamide] | 93 nM

The remaining compounds from weak to strong by IC50, led by results:

IC50 | SMILES
8200 nM | CC(C)Cn1cc(-c2ccc(C(=O)NC3CN(c4cccnn4)C3)o2)cn1 [Example 309, 5-[1-(2-methylpropyl)-1H-pyrazol-4-yl]-N-[1-(pyridazin-3-yl)azetidin-3-yl]furan-2-carboxamide]
629 nM | CC(=O)N1CCC(Oc2ccc(NC(=O)C3CN(c4ccnnc4)C3)cc2)CC1 [Example 282, N-{4-[(1-acetylpiperidin-4-yl)oxy]phenyl}-1-(pyridazin-4-yl)azetidine-3-carboxamide]
73.9 nM | CCCN1CCC(c2ccc(NC(=O)C3CN(c4cccnc4)C3)cc2)CC1 [Example 95, N-[4-(1-propylpiperidin-4-yl)phenyl]-1-(pyridin-3-yl)azetidine-3-carboxamide]
73.1 nM | O=C(Nc1ccc(OC2CCN(C(=O)Cc3ccc(F)cc3F)CC2)cc1)C1CN(c2ccnnc2)C1 [Example 277, N-[4-({1-[(2,4-difluorophenyl)acetyl]piperidin-4-yl}oxy)phenyl]-1-(pyridazin-4-yl)azetidine-3-carboxamide]
24 nM | CCC(CC)CN1CCC(c2ccc(NC(=O)C3CN(c4cccnc4)C3)cc2)CC1 [Example 92, N-{4-[1-(2-ethylbutyl)piperidin-4-yl]phenyl}-1-(pyridin-3-yl)azetidine-3-carboxamide]
10.4 nM | CC(=O)N1CCC(Oc2ccc(NC(=O)C3CN(c4cccnn4)C3)cc2)CC1 [Example 244, -{4-[(1-acetylpiperidin-4-yl)oxy]phenyl}-1-(pyridazin-3-yl)azetidine-3-carboxamide]
8.75 nM | COCC(=O)N1CCC(Oc2ccc(NC(=O)C3CN(c4cccnc4)C3)cc2)CC1 [Example 57, N-(4-{[1-(methoxyacetyl)piperidin-4-yl]oxy}phenyl)-1-(pyridin-3-yl)azetidine-3-carboxamide]
6.88 nM | CN(C)CCC(=O)N1CCC(c2ccc(NC(=O)C3CN(c4cccnc4)C3)cc2)CC1 [Example 107, N-{4-[1-(N,N-dimethyl-beta-alanyl)piperidin-4-yl]phenyl}-1-(pyridin-3-yl)azetidine-3-carboxamide]
6.7 nM | O=C(Nc1ccc(OC2CCN(C(=O)Cc3cc(F)cc(F)c3)CC2)cc1)C1CN(c2cccnn2)C1 [Example 239, N-[4-({1-[(3,5-difluorophenyl)acetyl]piperidin-4-yl}oxy)phenyl]-1-(pyridazin-3-yl)azetidine-3-carboxamide]
6.34 nM | CN1CCN(CC(=O)N2CCC(c3ccc(NC(=O)C4CN(c5cccnc5)C4)cc3)CC2)CC1 [Example 113, N-(4-{1-[(4-methylpiperazin-1-yl)acetyl]piperidin-4-yl}phenyl)-1-(pyridin-3-yl)azetidine-3-carboxamide]
4.67 nM | Cc1ccc(C)c(C(=O)N2CCC(c3ccc(NC(=O)[C@H]4CCN(c5cccnn5)C4)cc3)CC2)c1 [Example 696, (3S)-N-{4-[1-(2,5-dimethylbenzoyl)piperidin-4-yl]phenyl}-1-(pyridazin-3-yl)pyrrolidine-3-carboxamide]
2.17 nM | CCC(C)(C)C(=O)N1CCC(Oc2ccc(NC(=O)C3CN(c4cccnc4)C3)cc2)CC1 [Example 40, N-(4-{[1-(2,2-dimethylbutanoyl)piperidin-4-yl]oxy}phenyl)-1-(pyridin-3-yl)azetidine-3-carboxamide]
1.86 nM | Cc1ccc(C(=O)N2CCC(c3ccc(NC(=O)C4CN(c5cccnn5)C4)cc3)CC2)c(C)c1 [Example 358, N-{4-[1-(2,4-dimethylbenzoyl)piperidin-4-yl]phenyl}-1-(pyridazin-3-yl)azetidine-3-carboxamide]
1.67 nM | O=C(Nc1ccc(C2CCN(C(=O)c3cncs3)CC2)cc1)C1CN(c2cccnn2)C1 [Example 431, 1-(pyridazin-3-yl)-N-{4-[1-(1,3-thiazol-5-ylcarbonyl)piperidin-4-yl]phenyl}azetidine-3-carboxamide]
0.3 nM | COCC(=O)N1CCC(c2ccc(NC(=O)C3CN(c4cccnc4)C3)cc2)CC1 [Example 135, N-{4-[1-(methoxyacetyl)piperidin-4-yl]phenyl}-1-(pyridin-3-yl)azetidine-3-carboxamide]
